The values that follow come from patent publication US9125768B2, “Hygiene tissue comprising a microbe-inhibiting composition” (SCA HYGIENE PRODUCTS AB, priority 2006, dated 2015).

One assay deals with Candida albicans. Description: Test 3: growth of Candida albicans in extracellular product of Ess-1 combined with additive, visual turbidity. It is filed as cell-based. The settings on record: additive 50 mM combined with supernatant from Ess-1, pH adjusted to pKa of the acid, 20 hours 37° C. As to the method: Ess-1 was grown to stationary phase in dMRSs broth (MRS broth without addition of sodium acetate). The bacterial culture was centrifuged to pellet the cells and sterile filtered using a 0,22 μm filter (MILLIPORE filter, Bedford, USA) whereupon the supernatant comprising the extracellular product was obtained. […] Wells containing strong growth of Candida in pure dMRSs-broth was graduated as five, while wells with no visual growth were graduated as zero.

Assay [1] relates to Candida albicans (C. albicans 702). Description: Test 1: growth of Candida albicans in extracellular product of LB 931 with additives, micro titre plate, visual turbidity. The assay is classed as cell-based. The conditions noted are these: additive 50 mM in combination with extracellular product of LB 931, pH 3.4±0.2, 37° C. 24 hrs. As to the method: The purpose of this test was to determine whether selected additives affect the growth of Candida albicans and if an improved growth inhibition can be achieved when they are added to the extracellular products of Lactobacillus plantarum, LB 931. The additives used in this test were ascorbic acid, citric acid, phenylalanine, acetic acid, propionic acid and sodium propionate.
A clinical isolate of Candida albicans (designated C. albicans 702) was used as test strain. It was isolated from the vagina of a person with vaginal candidiasis.
As control pure dMRSs broth (MRS broth without addition of sodium acetate) was used. A specified volume was transferred to wells of a micro titre plate and was let to air dry (45° C. minimum of 20 hrs).
Cultures of LB 931 grown in dMRSs broth were centrifuged to pellet the cells and sterile filtered using a 0,22 μm filter (MILLIPORE filter, Bedford, USA) in order to obtain the LB 931 supernatant com prising the LB 931 extracell War product. […]
The test was blinded so that there could be no preconceived opinions colouring the results. The inhibition of Candida was evaluated and graduated, by two persons using a template, on a scale from five to zero based on visual observations of turbidity with a calculated mean value being presented. […]

Turning to `O=C1O[C@H]([C@@H](O)CO)C(O)=C1O` [ascorbic acid], the “inhibition of Candida albicans” value with Candida albicans was “increased inhibition”.

Take `CCC(=O)O` [propionic acid]: the “growth inhibiting effect on Candida (growth graded five to zero by turbidity)” value in assay [1] is listed as “no growth at all”.
